ChEMBL document CHEMBL3431459, “Roche carnitine palmitoyltransferase modulator screening data (supplementary data associated with the publication CHEMBL2216752)”
In brackets after ≈: the same amount, converted by molar mass.

Columns and labels:
[1] = SUPPLEMENTARY: Lyophilisation Solubility Assay (LYSA); format: physicochemical; details: read-out: Kinetic_solubility
[2] = target: T1, Carnitine O-palmitoyltransferase 1, muscle isoform (Homo sapiens, UniProt Q92523); test: SUPPLEMENTARY: Inhibition of Carnitine palmitoyltransferase 1, muscle isoform; design: species or system Muscle tissue
T1 sequence (Q92523 whole entry): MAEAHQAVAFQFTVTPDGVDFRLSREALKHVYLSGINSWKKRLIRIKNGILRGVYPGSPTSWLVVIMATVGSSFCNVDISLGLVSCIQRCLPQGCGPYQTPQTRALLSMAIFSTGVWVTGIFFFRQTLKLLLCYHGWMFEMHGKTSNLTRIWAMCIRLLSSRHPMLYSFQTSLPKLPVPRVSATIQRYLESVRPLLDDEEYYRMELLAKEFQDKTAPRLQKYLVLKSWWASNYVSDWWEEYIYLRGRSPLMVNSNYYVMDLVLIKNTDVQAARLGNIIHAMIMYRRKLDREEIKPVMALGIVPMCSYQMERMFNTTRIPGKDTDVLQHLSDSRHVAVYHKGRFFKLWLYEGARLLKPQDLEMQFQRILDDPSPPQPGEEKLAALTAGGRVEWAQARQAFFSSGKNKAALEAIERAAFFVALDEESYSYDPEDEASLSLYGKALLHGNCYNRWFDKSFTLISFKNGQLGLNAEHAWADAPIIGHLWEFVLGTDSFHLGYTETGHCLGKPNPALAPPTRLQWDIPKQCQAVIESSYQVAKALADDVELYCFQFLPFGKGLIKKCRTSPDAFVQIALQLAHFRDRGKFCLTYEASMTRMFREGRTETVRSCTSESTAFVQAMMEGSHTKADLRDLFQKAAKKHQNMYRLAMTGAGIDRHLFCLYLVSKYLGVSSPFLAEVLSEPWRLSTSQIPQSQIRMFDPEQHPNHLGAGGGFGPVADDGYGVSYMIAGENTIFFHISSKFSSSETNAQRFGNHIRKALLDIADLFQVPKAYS

[3] = SUPPLEMENTARY: PAMPA permeability assay; format: physicochemical; details: read-out: Permeability
[4] = target: T2, Carnitine O-palmitoyltransferase 1, liver isoform (Homo sapiens, UniProt P50416); test: (§1) SUPPLEMENTARY: Inhibition of Carnitine palmitoyltransferase 1, liver isoform
T2 sequence (P50416 whole entry): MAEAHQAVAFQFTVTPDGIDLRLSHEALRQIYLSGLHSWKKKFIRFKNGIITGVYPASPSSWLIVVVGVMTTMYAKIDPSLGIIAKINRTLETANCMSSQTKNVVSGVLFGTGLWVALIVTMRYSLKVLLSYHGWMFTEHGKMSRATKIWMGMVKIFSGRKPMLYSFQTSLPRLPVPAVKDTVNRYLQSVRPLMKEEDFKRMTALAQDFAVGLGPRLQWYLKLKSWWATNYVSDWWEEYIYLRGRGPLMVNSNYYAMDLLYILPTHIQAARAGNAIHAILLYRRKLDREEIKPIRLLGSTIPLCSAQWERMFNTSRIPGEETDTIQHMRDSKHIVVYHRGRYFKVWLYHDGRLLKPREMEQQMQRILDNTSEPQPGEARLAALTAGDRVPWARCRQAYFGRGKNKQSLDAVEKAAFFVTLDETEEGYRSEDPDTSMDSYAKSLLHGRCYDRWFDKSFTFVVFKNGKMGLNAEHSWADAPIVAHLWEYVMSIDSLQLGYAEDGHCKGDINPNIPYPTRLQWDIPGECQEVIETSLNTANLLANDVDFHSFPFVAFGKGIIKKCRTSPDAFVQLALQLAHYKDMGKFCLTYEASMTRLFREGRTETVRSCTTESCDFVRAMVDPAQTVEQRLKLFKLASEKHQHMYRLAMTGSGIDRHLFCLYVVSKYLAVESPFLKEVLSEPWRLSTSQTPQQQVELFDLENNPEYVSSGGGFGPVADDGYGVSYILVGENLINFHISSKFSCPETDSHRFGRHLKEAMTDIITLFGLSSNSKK

[5] = target: T3, Carnitine O-palmitoyltransferase 1, liver isoform (Rattus norvegicus, UniProt P32198); test: as §1
T3 sequence (P32198 whole entry): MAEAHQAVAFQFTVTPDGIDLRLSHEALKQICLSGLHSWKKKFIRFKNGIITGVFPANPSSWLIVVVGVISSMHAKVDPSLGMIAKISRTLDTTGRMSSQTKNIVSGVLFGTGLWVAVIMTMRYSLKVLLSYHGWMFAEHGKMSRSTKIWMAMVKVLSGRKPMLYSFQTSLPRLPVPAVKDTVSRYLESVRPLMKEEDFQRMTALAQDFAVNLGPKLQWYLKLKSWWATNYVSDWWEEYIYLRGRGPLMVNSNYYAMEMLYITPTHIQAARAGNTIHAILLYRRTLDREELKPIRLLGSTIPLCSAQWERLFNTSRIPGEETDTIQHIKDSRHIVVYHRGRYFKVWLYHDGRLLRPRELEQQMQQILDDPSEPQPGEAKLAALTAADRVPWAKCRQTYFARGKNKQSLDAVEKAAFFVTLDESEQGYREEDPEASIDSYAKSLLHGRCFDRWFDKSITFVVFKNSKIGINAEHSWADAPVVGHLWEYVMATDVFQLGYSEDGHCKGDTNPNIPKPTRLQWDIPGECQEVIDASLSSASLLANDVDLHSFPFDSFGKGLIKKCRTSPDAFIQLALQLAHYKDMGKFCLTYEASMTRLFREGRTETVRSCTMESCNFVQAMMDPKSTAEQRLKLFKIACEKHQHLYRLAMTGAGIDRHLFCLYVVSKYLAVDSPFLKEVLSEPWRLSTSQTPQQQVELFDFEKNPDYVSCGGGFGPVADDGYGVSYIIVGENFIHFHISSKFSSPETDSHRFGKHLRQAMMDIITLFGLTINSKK

[6] = target: T4, Carnitine O-palmitoyltransferase 2, mitochondrial (Homo sapiens, UniProt P23786); test: (§2) SUPPLEMENTARY: Inhibition of Carnitine palmitoyltransferase 2
T4 sequence (P23786 whole entry): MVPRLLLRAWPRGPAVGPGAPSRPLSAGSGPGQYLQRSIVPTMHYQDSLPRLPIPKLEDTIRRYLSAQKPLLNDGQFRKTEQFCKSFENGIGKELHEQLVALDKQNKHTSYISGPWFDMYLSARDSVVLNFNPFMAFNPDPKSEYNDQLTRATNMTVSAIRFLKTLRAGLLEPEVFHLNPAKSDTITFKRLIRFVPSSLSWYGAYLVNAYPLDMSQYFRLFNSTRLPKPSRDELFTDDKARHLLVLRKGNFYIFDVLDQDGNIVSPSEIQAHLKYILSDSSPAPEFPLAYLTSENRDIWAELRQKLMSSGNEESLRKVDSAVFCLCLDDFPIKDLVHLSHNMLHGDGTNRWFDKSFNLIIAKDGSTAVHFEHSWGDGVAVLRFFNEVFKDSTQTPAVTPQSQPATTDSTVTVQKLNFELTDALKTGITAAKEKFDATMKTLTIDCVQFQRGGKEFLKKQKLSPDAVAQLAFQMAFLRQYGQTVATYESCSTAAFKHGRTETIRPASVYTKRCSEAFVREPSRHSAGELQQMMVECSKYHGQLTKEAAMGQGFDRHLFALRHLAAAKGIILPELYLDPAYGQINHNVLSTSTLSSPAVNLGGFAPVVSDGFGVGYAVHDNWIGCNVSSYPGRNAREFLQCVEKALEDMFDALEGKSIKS

[7] = target: T5, Carnitine O-palmitoyltransferase 2, mitochondrial (Rattus norvegicus, UniProt P18886); test: as §2
T5 sequence (P18886 whole entry): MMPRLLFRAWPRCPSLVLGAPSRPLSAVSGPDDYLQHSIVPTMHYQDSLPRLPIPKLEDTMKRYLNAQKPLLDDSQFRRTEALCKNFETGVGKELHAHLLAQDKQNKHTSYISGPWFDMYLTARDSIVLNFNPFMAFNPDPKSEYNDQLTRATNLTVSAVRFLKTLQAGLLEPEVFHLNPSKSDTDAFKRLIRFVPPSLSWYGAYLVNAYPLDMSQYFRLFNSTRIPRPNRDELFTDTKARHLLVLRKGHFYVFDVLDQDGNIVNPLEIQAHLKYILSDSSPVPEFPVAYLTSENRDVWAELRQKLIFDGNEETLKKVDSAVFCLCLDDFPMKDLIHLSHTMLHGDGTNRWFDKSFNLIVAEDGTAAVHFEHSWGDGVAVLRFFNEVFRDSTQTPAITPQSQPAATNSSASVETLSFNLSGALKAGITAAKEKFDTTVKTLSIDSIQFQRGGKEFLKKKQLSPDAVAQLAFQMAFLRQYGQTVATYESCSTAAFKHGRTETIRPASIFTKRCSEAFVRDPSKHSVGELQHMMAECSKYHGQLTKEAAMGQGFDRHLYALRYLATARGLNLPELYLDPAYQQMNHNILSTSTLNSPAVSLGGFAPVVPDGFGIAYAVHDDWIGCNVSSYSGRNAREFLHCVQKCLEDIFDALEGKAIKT

[8] = SUPPLEMENTARY: Lipophilicity (log D) Determination by high-throughput shake-flask; format: physicochemical; details: octanol/water

| solubility kinetic [1] | IC50 [2] | Papp [3] | IC50 [4] | IC50 [5] | IC50 [6] | IC50 [7] | logD [8] | Compound |
| --- | --- | --- | --- | --- | --- | --- | --- | --- |
| 565 µg/mL (≈ 1060 µM) | 750 nM | 2.79 ×10⁻⁶ cm/s | 150 nM | 84.7 nM | > 100000 nM | > 100000 nM | 0.47 | COc1ccc(Cl)cc1S(=O)(=O)N1CCOc2c(F)cc(C(=O)Nc3ccc(CC(=O)O)cc3)cc21 |
| 10 µg/mL (≈ 18.5 µM) | 741 nM | 2.43 ×10⁻⁶ cm/s | 23.9 nM | 33.8 nM | > 100000 nM | > 100000 nM | 0.28 | COc1ccc(Cl)cc1S(=O)(=O)N1CCOc2c(F)cc(C(=O)Nc3nc(CC(=O)O)cs3)cc21 |
| 232 µg/mL (≈ 435 µM) | 792 nM | 5.1 ×10⁻⁶ cm/s | 120 nM | 155 nM | > 100000 nM | > 100000 nM | 0.61 | COc1ccc(Cl)cc1S(=O)(=O)N1CCSc2ccc(C(=O)Nc3ccc(CC(=O)O)cc3)cc21 |
| 5 µg/mL (≈ 9.26 µM) | 992 nM | 3.65 ×10⁻⁶ cm/s | 11.6 nM | 20.4 nM | > 100000 nM | > 100000 nM | 0.39 | COc1ccc(Cl)cc1S(=O)(=O)N1CCSc2ccc(C(=O)Nc3nc(CC(=O)O)cs3)cc21 |
| 532 µg/mL (≈ 1060 µM) | 2130 nM | 4.09 ×10⁻⁶ cm/s | 97.4 nM | 32.3 nM | > 100000 nM | > 100000 nM | 0.33 | COc1ccc(Cl)cc1S(=O)(=O)N1CCc2ccc(C(=O)Nc3ccc(CC(=O)O)cc3)cc21 |
| 48 µg/mL (≈ 94.5 µM) | 1310 nM | 3.25 ×10⁻⁶ cm/s | 22.3 nM | 15.2 nM | > 100000 nM | > 100000 nM | 0.17 | COc1ccc(Cl)cc1S(=O)(=O)N1CCc2ccc(C(=O)Nc3nc(CC(=O)O)cs3)cc21 |
| 1 µg/mL (≈ 2.2 µM) | 26500 nM | 0.6 ×10⁻⁶ cm/s | 16.7 nM | 9.7 nM | 2290 nM | 3280 nM | 2.99 | O=C(O)c1ccc(NC(=O)c2ccc3ccn(S(=O)(=O)c4cccc(Cl)c4)c3c2)cc1 |
| 1 µg/mL (≈ 2.23 µM) | > 100000 nM | 1.46 ×10⁻⁶ cm/s | 35.3 nM | 29.1 nM | 1940 nM | 6480 nM | > 3 | Cc1cc(C)cc(S(=O)(=O)n2ccc3ccc(C(=O)Nc4ccc(C(=O)O)cc4)cc32)c1 |
| 35 µg/mL (≈ 80.6 µM) | > 100000 nM | 3.74 ×10⁻⁶ cm/s | 35.8 nM | 89.3 nM | > 100000 nM | > 100000 nM | 3.12 | O=C1COc2ccc(-c3nc([C@H]4CCCCN4C(=O)COc4ccccc4)no3)cc2N1 |
| 418 µg/mL (≈ 836 µM) | 535 nM | 0.96 ×10⁻⁶ cm/s | 46.8 nM | 19.7 nM | > 100000 nM | > 100000 nM | 1.21 | COc1ccc(Cl)cc1CN1C(=O)C(C)(C)c2ccc(C(=O)Nc3nc(CC(=O)O)cs3)cc21 |
| 136 µg/mL (≈ 284 µM) | 2170 nM | 0.94 ×10⁻⁶ cm/s | 67.1 nM | 126 nM | 5510 nM | 9030 nM | 1.83 | COc1ccc(Cl)cc1CN1C(=O)C(C)(C)c2ccc(C(=O)Nc3ccc(C(=O)O)cc3)cc21 |
| 6 µg/mL (≈ 11.6 µM) | 827 nM | 1.86 ×10⁻⁶ cm/s | 96.8 nM | 70.2 nM | > 100000 nM | > 100000 nM | 0.11 | COc1ccc(Cl)cc1S(=O)(=O)N1CCOc2ccc(C(=O)Nc3ccc(CC(=O)O)cc3)cc21 |
| < 1 µg/mL | > 100000 nM | 0.4 ×10⁻⁶ cm/s | 168 nM | 172 nM | > 100000 nM | > 100000 nM | > 3 | CCN1C(=O)CC(C)(C)c2ccc(-c3nc([C@H]4CCCCN4C(=O)COc4ccccc4)no3)cc21 |
| 20 µg/mL (≈ 56.3 µM) | > 100000 nM | 4.38 ×10⁻⁶ cm/s | 181 nM | 106 nM | > 100000 nM | > 100000 nM | 3.08 | O=C(COc1ccccc1)N1CCCC[C@@H]1c1noc(C2CCCC2)n1 |
